The text below walks through data of patent US11655216B2 (priority 2016, dated 2023).

pEC50: −log10 of the molar value. Read-outs that look alike come from different tables or passages of the source.

Experiment [1] addresses T1, glutathione-S-transferase (GST) tagged LXRbeta LBD (ligand binding domain) (Homo sapiens, UniProt P55055).
T1 construct: purchased Invitrogen pv4658
T1 sequence (P55055 222-460 limits assumed): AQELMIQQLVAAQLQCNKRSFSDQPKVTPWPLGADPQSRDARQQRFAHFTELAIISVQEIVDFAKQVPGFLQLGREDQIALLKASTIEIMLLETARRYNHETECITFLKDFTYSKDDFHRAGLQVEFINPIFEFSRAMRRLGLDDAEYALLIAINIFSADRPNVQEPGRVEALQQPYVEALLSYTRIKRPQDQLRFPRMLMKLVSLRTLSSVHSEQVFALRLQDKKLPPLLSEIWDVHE
In words: LanthaScreen TR-FRET Liver X Receptor Coactivator Assay, LXR beta. Type of experiment: biochemical. The conditions noted are these: for pEC50: LXR beta IP, potency (Inflection Point), compound-induced co-activator recruitment, TR-FRET; for Emax: read-out: LXR beta actiivty at max dose, efficacy (% Emax) in relation to reference dual agonist T0901317. An outline of the steps:
(§1)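 TR-FRET read-out of coactivator recruitment: fluorescein-coactivator peptide plus Tb-anti-GST antibody added to LBD preincubated with compound; incubated at RT before reading.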
Background: TR-FRET usually uses a lanthanide donor and a delayed reading to cut background.

Experiment [2] has as its target T2, glutathione-S-transferase (GST) tagged LXRalpha LBD (ligand binding domain) (Homo sapiens, UniProt Q13133).
T2 construct: purchased Invitrogen pv4655
T2 sequence (Q13133 209-447 limits assumed): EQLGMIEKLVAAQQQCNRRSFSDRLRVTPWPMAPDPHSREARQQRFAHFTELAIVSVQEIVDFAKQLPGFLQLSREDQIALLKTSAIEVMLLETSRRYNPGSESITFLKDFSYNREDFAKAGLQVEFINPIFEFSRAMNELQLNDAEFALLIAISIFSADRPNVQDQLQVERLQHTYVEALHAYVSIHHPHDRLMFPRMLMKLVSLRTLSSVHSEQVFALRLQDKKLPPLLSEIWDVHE
In words: biochemical. Particulars: for pEC50: LXR alpha IP. The method in brief:
as §1

Where [3] appears, read: potency (Inflection Point), compound-induced co-activator recruitment, TR-FRET.
Where [4] appears, read: read-out: LXR alpha actiivty at max dose, efficacy (% Emax) in relation to reference dual agonist T0901317.

Take `CN(C)C(=O)c1ccc(OCCCC2CCN(C(=O)c3c(F)cccc3F)CC2)nc1Cl` [Example 3-14, 2-chloro-6-(3-(1-(2,6-difluorobenzoyl)piperidin-4-yl)propoxy)-N,N-dimethylnicotinamide]: in experiment [1], the negative-log EC50 (pEC50) was 6.80 and the Emax is 77%. Moreover, in experiment [2] (setting [3]), the “LXR alpha IP” value is listed as “No IP”. In addition, the Emax in experiment [2] (setting [4]) was found to be 46%.
Consider `CN(C)C(=O)c1ccc(OCCC2CC23CCN(S(=O)(=O)C(C)(C)c2ccccc2)CC3)cc1Cl` (single isomer, unassigned) [Example 12-18, (S or R)-2-chloro-N,N-dimethyl-4-(2-(6-(2-phenylpropan-2-ylsulfonyl)-6-azaspiro[2.5]octan-1-yl)ethoxy)benzamide], for which the pEC50 in experiment [1] is 7.10; in experiment [2] (setting [3]) it was 5.93. Moreover, the Emax in experiment [1] is 26%; in experiment [2] (setting [4]) it was 27%.
On to `CC(C)C(O)(C(=O)N1CCC(C2CC2COc2ccc(C(=O)N(C)C)c(Cl)c2)CC1)C(F)(F)F` (single isomer, unassigned) [Example 32-1, 2-chloro-4-(((1R,2S or 1S,2R)-2-(1-((S or R)-2-hydroxy-3-methyl-2-(trifluoromethyl)butanoyl)piperidin-4-yl)cyclopropyl)methoxy)-N,N-dimethylbenzamide], for which, in experiment [1], the pEC50 is 6.50 and the Emax is 82%. The “LXR alpha actiivty at max dose” value in experiment [2] (efficacy (% Emax) in relation to reference dual agonist T0901317) worked out at 0%. Also, the “LXR alpha IP” value in experiment [2] (setting [3]) is reported as “No IP”.
Turning to `CN(C)C(=O)c1ccc(OCCC2CC23CCN(C(=O)C(C)(C)c2cccc(Br)n2)CC3)cc1Cl` (single isomer, unassigned) [Example 12-20, (S or R)-4-(2-(6-(2-(6-bromopyridin-2-yl)-2-methylpropanoyl)-6-azaspiro[2.5]octan-1-yl)ethoxy)-2-chloro-N,N-dimethylbenzamide], in experiment [1], the negative-log EC50 (pEC50) was 7.33 and the Emax was determined as 32%. The “LXR alpha IP” value in experiment [2] (setting [3]) was “No IP”. Further, the Emax in experiment [2] (setting [4]) came to 0%.
As for `CNC(=O)c1ccc(OCCCCC2CCN(C(=O)[C@](O)(c3cccc(OC)c3)C(F)(F)F)CC2)cc1Cl` (single isomer, unassigned) [Example 8-18, (R or S)-2-chloro-N-methyl-4-(4-(1-(3,3,3-trifluoro-2-hydroxy-2-(3-methoxyphenyl)propanoyl)piperidin-4-yl)butoxy) benzamide], the negative-log EC50 (pEC50) is 7.85 in experiment [1] and 6.13 in experiment [2] (setting [3]). Also, the Emax in experiment [1] turned out to be 91%; in experiment [2] (setting [4]), 31%.
Regarding `CN(C)C(=O)c1ccc(OCCC[C@H]2CC23CCN(C(=O)[C@@](O)(c2ccccc2)C(F)(F)F)CC3)cc1Cl` (single isomer, unassigned) [Example 14-1, 2-chloro-N,N-dimethyl-4-(3-((S or R)-6-((S or R)-3,3,3-trifluoro-2-hydroxy-2-phenylpropanoyl)-6-azaspiro[2.5]octan-1-yl)propoxy)benzamide], the pEC50 in experiment [1] is 7.19; in experiment [2], 6.12. The Emax in experiment [1] came to 99%; in experiment [2] (read-out: LXR alpha actiivty at max dose), 9%.
As for `CN(C)C(=O)c1ccc(OCC2CC3(CCN(C(=O)C(O)(c4ccccc4)C(F)(F)F)CC3)C2)cc1Cl` (single isomer, unassigned) [Example 33-1, 2-chloro-N,N-dimethyl-4-((7-((R or S)-3,3,3-trifluoro-2-hydroxy-2-phenylpropanoyl)-7-azaspiro[3.5]nonan-2-yl)methoxy)benzamide], the pEC50 is 8.05 in experiment [1] and 6.48 in experiment [2] (setting [3]). Also, the Emax is 69% in experiment [1] and 42% in experiment [2] (setting [4]).
The like results for `CN(C)C(=O)c1ccc(OCC[C@H]2CC23CCN(C(=O)[C@@](N)(c2ccccc2)C(F)(F)F)CC3)cc1Cl` (single isomer, unassigned) [Example 12-8, 4-(2-((R or S)-6-((S or R)-2-amino-3,3,3-trifluoro-2-phenylpropanoyl)-6-azaspiro[2.5]octan-1-yl)ethoxy)-2-chloro-N,N-dimethylbenzamide] were, in that order, 6.87, 5.65, 67% and 23%.
As for `COc1cccc([C@@](O)(C(=O)N2CCC3(CC2)C[C@@H]3CCCOc2ccc(C(=O)N(C)C)c(Cl)c2)C(F)(F)F)c1` (single isomer, unassigned) [Example 14-6, 2-chloro-N,N-dimethyl-4-(3-((S or R)-6-((R or S)-3,3,3-trifluoro-2-hydroxy-2-(3-methoxyphenyl)propanoyl)-6-azaspiro[2.5]octan-1-yl)propoxy)benzamide], the results for the negative logarithm of the EC50 (pEC50) in experiment [1] and in experiment [2] (setting [3]) were 8.22 and 6.79, respectively. Besides, the Emax in experiment [1] came to 116%; in experiment [2] (setting [4]), 23%.
As for `CC(C)Oc1cccc(C(O)(C(=O)N2CCC(CCCCOc3ccc(C(=O)N(C)C)c(Cl)c3)CC2)C(F)(F)F)c1` (single isomer, unassigned) [Example 3-11, (S or R)-2-chloro-N,N-dimethyl-4-(4-(1-(3,3,3-trifluoro-2-hydroxy-2-(3-isopropoxyphenyl)propanoyl)piperidin-4-yl)butoxy)benzamide], the negative-log EC50 (pEC50) in experiment [1] is 8.05; in experiment [2] (setting [3]) it was 6.21. The Emax in experiment [1] was 80%; in experiment [2] (setting [4]), 21%.
The like results for `CN(C)C(=O)c1ccc(OCCCCC2CCN(C(=O)C(O)(c3ccccc3)C(F)(F)F)CC2)cc1Cl` (single isomer, unassigned) [Example 3-8, 2-chloro-N,N-dimethyl-4-(4-(1-(3,3,3-trifluoro-2-hydroxy-2-phenylpropanoyl)piperidin-4-yl)butoxy)benzamide] were, in that order, 8.30, 6.76, 85% and 30%.
In experiment [1], `COc1cccc([C@@](O)(C(=O)N2CCC(C[C@H]3C[C@@H](Oc4ccc(C(=O)N(C)C)c(Cl)c4)C3)CC2)C(F)F)c1` (single isomer, unassigned) [Example 37-8, 2-chloro-4-((1R,3s)-3-((1-((R or S)-3,3-difluoro-2-hydroxy-2-(3-methoxyphenyl)propanoyl)piperidin-4-yl)methyl)cyclobutoxy)-N,N-dimethylbenzamide] showed a pEC50 of 6.45. Also, the Emax in experiment [1] was 51%; in experiment [2] (setting [4]) it was 0%. Besides, the “LXR alpha IP” value in experiment [2] (setting [3]) was “No IP”.
Consider `COc1cccc(C(O)(C(=O)N2CCC(C3CC3(C)COc3ccc(C(=O)N(C)C)c(Cl)c3)CC2)C(F)(F)F)c1` (single isomer, unassigned) [Example 16-1, 2-chloro-N,N-dimethyl-4-((1-methyl-2-(1-((R or S)-3,3,3-trifluoro-2-hydroxy-2-(3-methoxyphenyl)propanoyl)piperidin-4-yl)cyclopropyl)methoxy)benzamide], for which the values for the negative logarithm of the EC50 (pEC50) in experiment [1] and in experiment [2] (setting [3]) were 7.18 and 6.02, respectively. The values for the Emax in experiment [1] and in experiment [2] (setting [4]) were 84% and 18%, respectively.
On the same counts, the results for `CN(C(=O)c1ccc(OCCCCC2CCN(C(=O)[C@](O)(c3ccccc3)C(F)(F)F)CC2)cc1Cl)C1COC1` (single isomer, unassigned) [Example 8-13, (R or S)-2-chloro-N-methyl-N-(oxetan-3-yl)-4-(4-(1-(3,3,3-trifluoro-2-hydroxy-2-phenylpropanoyl)piperidin-4-yl)butoxy) benzamide] are 7.66, 6.39, 73% and 29%.

As usually defined, the pEC50 is −log10 of the EC50, conventionally taken in molar units.
